What was measured:
[1] = biological target: Carbonic anhydrase 2 (Homo sapiens, UniProt P00918); assay: Inhibition of human CA2 preincubated for 15 mins by stopped flow CO2 hydration assay
[2] = biological target: Carbonic anhydrase 1 (Homo sapiens, UniProt P00915); assay: Inhibition of human CA1 preincubated for 15 mins by stopped flow CO2 hydration assay
[3] = biological target: Carbonic anhydrase 12 (Homo sapiens, UniProt O43570); assay: Inhibition of human CA12 preincubated for 15 mins by stopped flow CO2 hydration assay
Carbonic anhydrase 12, sequence (O43570 whole entry): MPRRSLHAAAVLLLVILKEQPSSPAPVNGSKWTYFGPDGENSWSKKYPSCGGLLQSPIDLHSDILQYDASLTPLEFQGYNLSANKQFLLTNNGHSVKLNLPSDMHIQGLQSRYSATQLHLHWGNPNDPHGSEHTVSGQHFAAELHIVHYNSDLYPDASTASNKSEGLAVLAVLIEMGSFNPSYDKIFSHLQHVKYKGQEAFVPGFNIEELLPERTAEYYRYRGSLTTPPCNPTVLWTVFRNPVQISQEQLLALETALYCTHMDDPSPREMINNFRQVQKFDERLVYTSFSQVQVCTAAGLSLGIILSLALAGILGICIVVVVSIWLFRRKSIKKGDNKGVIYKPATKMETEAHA

Carbonic anhydrase 1, sequence (P00915 whole entry): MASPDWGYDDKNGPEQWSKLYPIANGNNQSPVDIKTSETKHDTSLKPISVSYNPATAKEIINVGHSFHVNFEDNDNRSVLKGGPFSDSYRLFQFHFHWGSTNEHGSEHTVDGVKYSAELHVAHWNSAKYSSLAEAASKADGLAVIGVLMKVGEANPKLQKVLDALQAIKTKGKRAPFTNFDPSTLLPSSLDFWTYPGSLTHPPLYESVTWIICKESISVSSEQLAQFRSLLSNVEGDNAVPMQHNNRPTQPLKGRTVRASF

Ki [1]: 12.4 nM
Ki [2]: 212 nM
Ki [3]: 0.62 nM
SMILES: NS(=O)(=O)c1ccc(CCn2c(=S)[nH]c3ccc(F)cc3c2=O)cc1
